Test results: patent US4970205A, “Sulfonic acid substituted aromatic steroids as inhibitors of steroid 5-α-reductase” (SmithKline Beecham Corporation, priority 1988, dated 1990)
Where two headings read alike, the source gives them in different places.

Key:
steroid 5-α-reductase = details: cited from earlier work; for Ki / reversibility of inhibition (with Ki): Table I; for time-dependence of 5-α-reductase inhibition: footnote text of Table I
[1] = molecular target: T1, human steroid 5-α-reductase (Homo sapiens, UniProt P31213); assay: inhibition of human steroid 5-α-reductase using tissue from hyperplastic human prostates ([14C]-testosterone conversion, Dixon plot); format: biochemical; details: human prostatic particulate, pH 5.0, 37° C., 20 to 30 minutes; competitive against testosterone assumed
T1 construct: Frozen human prostates were thawed and minced into small pieces; from tissue; host or cells: hyperplastic human prostate, 140,000 x g particulate fraction
T1 sequence (P31213 1-254): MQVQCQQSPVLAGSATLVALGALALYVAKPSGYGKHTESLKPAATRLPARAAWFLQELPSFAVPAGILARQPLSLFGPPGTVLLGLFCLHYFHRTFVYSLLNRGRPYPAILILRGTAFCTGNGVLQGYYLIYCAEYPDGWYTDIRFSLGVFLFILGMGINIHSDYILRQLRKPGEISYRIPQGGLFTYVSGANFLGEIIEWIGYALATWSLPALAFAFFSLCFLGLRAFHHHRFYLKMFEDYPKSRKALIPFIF
Method: A compound of the invention, potassium 17b-(N,N-diisopropylcarboxamide)-estr-1,3,5(10)-triene-3-sulfonate, was tested for potency in inhibiting human steroid 5-α-reductase using tissue from hyperplastic human prostates. In determining potency in inhibiting the human enzyme, the following procedure was employed:
Frozen human prostates were thawed and minced into small pieces (5 mm^3). The tissue was homogenized in 3 to 5 volumes of 20 mM potassium phosphate buffer, pH 6.5, containing 0.33 M sucrose, 1 mM dithiothreitol, and […] with a Brinkmann Polytron (Sybron Corporation, Westbury, N.Y.). The solution was subjected to sonication for 3 to 5 minutes with a Sonifier (Branson Sonic Power Co.) followed by hand homogenization in a glass-to-glass Dounce homogenizer (Kontes Glass Company, Vineland, N.J.). […]
A constant amount of [^14 C]-testosterone (52 to 55 mCi/mmol, New England Nuclear, Boston, Mass.) in ethanol and varying amounts of the potential inhibitor in ethanol were deposited in test tubes and concentrated to dryness in a SAVANT Speed Vac. […] The radiochemical content in the bands of the substrate and the products was determined with a BIOSCAN Imaging Scanner (Bioscan, Inc., Washington, D.C.). The percent of recovered radiolabel converted to product was calculated, from which enzyme activity was determined. […]

CC12CCC(=O)C=C1CCC1C2CCC2(C)C(C(=O)O)CCC12 (stereo not shown) [(1)]
Ki (steroid 5-α-reductase): 1100 nM | reversibility of inhibition (with Ki) (steroid 5-α-reductase): Reversible

CC(=O)C1CCC2C3CC=C=CC(=O)CCC(=O)C3CCC12C (stereo not shown) [(2)]
Ki (steroid 5-α-reductase): 1000 nM | reversibility of inhibition (with Ki) (steroid 5-α-reductase): Irreversible

CC(CO)C1CCC2C3CCC4C(=[N+]=[N-])C(=O)CCC4(C)C3CCC12C (stereo not shown) [(3)]
Ki (steroid 5-α-reductase; unit inferred): 35 nM | reversibility of inhibition (with Ki) (steroid 5-α-reductase): Irreversible | time-dependence of 5-α-reductase inhibition (steroid 5-α-reductase): potent, time-dependent

CCN(CC)C(=O)C1CCC2C3CCC4N(C)C(=O)CCC4(C)C3CCC12C (stereo not shown) [(4)]
Ki (steroid 5-α-reductase): 5 nM | reversibility of inhibition (with Ki) (steroid 5-α-reductase): Reversible

C=C1CC2C(CCC3(C)C2CCC3(OC(C)=O)C(C)=O)C2(C)CCC(=O)C=C12 (stereo not shown) [(5)]
Ki (steroid 5-α-reductase): 1250 nM | reversibility of inhibition (with Ki) (steroid 5-α-reductase): Irreversible | time-dependence of 5-α-reductase inhibition (steroid 5-α-reductase): time-dependent inactivator

CC(C)N(C(=O)[C@H]1CC[C@H]2[C@@H]3CCc4cc(S(=O)(=O)O)ccc4[C@H]3CC[C@]12C)C(C)C [Potassium 17β-(N,N-Diisopropylcarboxamide)-estr-1,3,5(10)-triene-3-sulfonate]
Ki [1]: 10 nM
